Molecular target: T1, Recombinant human GSK3β (Homo sapiens, UniProt P49841)
T1 construct: His-tag; made in house; host or cells: Sf9 insect cells / baculovirus
Assay: GSK-3β (Glycogen Synthase Kinase) cell free enzyme assay
Format: biochemical
Details: 1 μM; Examples 236-262
Protocol: Assay Protocol for GSK-3β (Glycogen Synthase Kinase) in a Cell Free Enzyme Assay
Recombinant human GSK3β was expressed in SF9/Baculo virus cells. His-tag protein was purified by affinity chromatography to a Ni-NTA Superflow column. Enzyme activity was assayed as the incorporation of [33P] from the gamma phosphate of [33P]ATP (PerkinElmer) into biotinylated peptide substrate bio-LC-S-R-H-S-S-P-H-Q-pS-E-D-E-E-E-OH (Anaspec). Reactions were carried out in a buffer containing 8 mM MOPS (pH 7.0), 10 mM Magnesium Acetate, 0.2 mM EDTA, 1 mM DTT and 2 uM cold ATP. The 33P-ATP was added for 0.025 uCi/well (120 uL) and the final concentration of substrate was 1.0 uM. Enzyme was preincubated with test agent for 30 minutes at room temperature followed by initiation of the reaction by the addition of substrate mix. Incubations were carried out at RT for 60 min. Reactions were stopped by addition of 0.66 volume of buffer containing: 12.5 mM EDTA, 0.25% Triton-X 100, 125 uM ATP, and 6.2 mg/ml streptavidin coated SPA beads (Amersham) in PBS without Ca or Mg. Radioactivity associated with the beads was quantified by scintillation counting of CPM in a Trilux counter (PerkinElmer).
Examples 42 to 60 were prepared using the analogous procedure described to prepare Example 41, substituting the appropriate starting material (Examples 1 to 35) and coupling with the appropriate acid. The assay protocol used is the percent inhibition at 1 μM for GSK-3β in the cell free enzyme assay described above.

T1 sequence (P49841 whole entry): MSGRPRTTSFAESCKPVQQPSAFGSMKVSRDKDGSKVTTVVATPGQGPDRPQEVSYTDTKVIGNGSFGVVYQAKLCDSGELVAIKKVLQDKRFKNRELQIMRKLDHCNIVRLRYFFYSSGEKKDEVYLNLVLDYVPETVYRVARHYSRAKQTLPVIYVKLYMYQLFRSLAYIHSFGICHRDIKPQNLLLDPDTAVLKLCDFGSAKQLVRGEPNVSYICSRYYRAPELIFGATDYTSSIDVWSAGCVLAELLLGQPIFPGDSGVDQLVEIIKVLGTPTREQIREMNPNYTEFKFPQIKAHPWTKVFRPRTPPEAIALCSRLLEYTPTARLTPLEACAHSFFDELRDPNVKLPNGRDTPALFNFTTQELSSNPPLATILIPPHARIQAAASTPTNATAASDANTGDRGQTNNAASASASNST

Compound	Percent inhibition at 1 μM
2-[(1R,5S)-3-Benzyl- 38- diazabicyclo[3.2.1]oct- 8-yl]-3-methyl-6- pyridin-4-ylpyrimidin- 4(3H)-one [Example 250]	69%

Same assay, conditions: 1 μM; GSK-3β cell free enzyme assay; Examples 42-60

Compound	Percent inhibition at 1 μM
2-{[(3a,S5,S7,aR)-1- Acetyl-3a- methyloctahydro-1H- indol-5- yl](methyl)amino}-3- methyl-6-pyridin-4- ylpyrimidin-4(3H)-one [Example 50]	82%

Same assay, conditions: cell free enzyme assay; Examples 1-35

Compound	IC50
Cn1c(N2CC[C@@](O)(c3ccccc3)[C@H]3CCCC[C@H]32)nc(-c2ccncc2)cc1=O [Example 1, 2-[(4S,4aS,8aR)-4-Hydroxy-4-phenyloctahydro-quinolin-1(2H)-yl]-3-methyl-6-pyridin-4-ylpyrimidin-4(3H)-one]	0.7 nM
Cn1c(N[C@H]2[C@@H]3CN(C(=O)OC(C)(C)C)C[C@@H]32)nc(-c2ccncc2)cc1=O [Example 2, tert-butyl (1R,5S,6s)-6-[(1-Methyl-6-oxo-4-pyridin-4-yl-1,6-dihydropyrimidin-2-yl)amino]-3-azabicyclo[3.1.0] hexane-3-carboxylate]	2.2 nM
Cn1c(NCC2OCCc3ccccc32)nc(-c2ccncc2)cc1=O (stereo not shown) [Example 3, 2-[(3,4-dihydro-1H-Isochromen-1-ylmethyl)amino]-3-methyl-6-pyridin-4-ylpyrimidin-4(3H)-one]	23 nM
CCN(C[C@@H]1CCCN1C(=O)OC(C)(C)C)c1nc(-c2ccncc2)cc(=O)n1C [Example 4, tert-butyl (2S)-2-{[Ethyl(1-methyl-6-oxo-4-pyridin-4-yl-1,6-dihydropyrimidin-2-yl)amino]methyl} pyrrolidine-1-carboxylate]	4.2 nM
CCN(C[C@H]1CCCN1C(=O)OC(C)(C)C)c1nc(-c2ccncc2)cc(=O)n1C [Example 5, tert-butyl (2R)-2-{[Ethyl(1-methyl-6-oxo-4-pyridin-4-yl-1,6-dihydropyrimidin-2-yl)amino]methyl} pyrrolidine-1-carboxylate]	2.1 nM
Cn1c(N[C@H]2[C@@H]3CN(C(=O)OC(C)(C)C)C[C@@H]32)nc(-c2ccncc2)cc1=O [Example 6, tert-butyl (1R,5S,6s)-6-[(1-Methyl-6-oxo-4-pyridin-4-yl-1,6-dihydropyrimidin-2-yl)amino]-3-azabicyclo[3.1.0] hexane-3-carboxylate]	2.8 nM
CC1c2cccn2CCN1c1nc(-c2ccncc2)cc(=O)n1C (stereo not shown) [Example 7, 3-Methyl-2-(1-methyl-3,4-dihydropyrrolo[1,2-a]pyrazin-2(1H)-yl)-6-pyridin-4-ylpyrimidin-4(3H)-one]	10.7 nM
Cn1c(NC2CCCN(C(=O)OC(C)(C)C)CC2)nc(-c2ccncc2)cc1=O (stereo not shown) [Example 8, tert-butyl 4-[(1-Methyl-6-oxo-4-pyridin-4-yl-1,6-dihydropyrimidin-2-yl)amino]azepane-1-carboxylate]	9.1 nM
Cn1c(N[C@H]2Cc3ccccc3NC2=O)nc(-c2ccncc2)cc1=O [Example 9, (3S)-3-[(1-Methyl-6-oxo-4-pyridin-4-yl-1,6-dihydropyrimidin-2-yl)amino]-3,4-dihydroquinolin-2(1H)-one]	30 nM
CN(c1nc(-c2ccncc2)cc(=O)n1C)C1CCCN(C(=O)OC(C)(C)C)CC1 (stereo not shown) [Example 10, tert-butyl 4-[Methyl(1-methyl-6-oxo-4-pyridin-4-yl-1,6-dihydropyrimidin-2-yl)amino]azepane-1-carboxylate]	14.4 nM
CN(c1nc(-c2ccncc2)cc(=O)n1C)C1CCN(C(=O)OC(C)(C)C)C1 (stereo not shown) [Example 11, tert-butyl 3-[Methyl(1-methyl-6-oxo-4-pyridin-4-yl-1,6-dihydropyrimidin-2-yl)amino]pyrrolidine-1-carboxylate]	17.7 nM
Cn1c(N2[C@@H]3CC[C@H]2CN(C(=O)OC(C)(C)C)C3)nc(-c2ccncc2)cc1=O [Example 12, tert-butyl (1R,5S)-8-(1-Methyl-6-oxo-4-pyridin-4-yl-1,6-dihydropyrimidin-2-yl)-3,8-diazabicyclo[3.2.1] octane-3-carboxylate]	32.4 nM
CCN(c1nc(-c2ccncc2)cc(=O)n1C)C1CCN(C(=O)OC(C)(C)C)C1 (stereo not shown) [Example 13, tert-butyl 3-[Ethyl(1-methyl-6-oxo-4-pyridin-4-yl-1,6-dihydropyrimidin-2-yl)amino]pyrrolidine-1-carboxylate]	16.5 nM
Cn1c(NC[C@H]2CCN(C(=O)OC(C)(C)C)C2)nc(-c2ccncc2)cc1=O [Example 14, tert-butyl (3R)-3-{[(1-Methyl-6-oxo-4-pyridin-4-yl-1,6-dihydropyrimidin-2-yl)amino]methyl} pyrrolidine-1-carboxylate]	74 nM
CCN(c1nc(-c2ccncc2)cc(=O)n1C)C1CCCN(C(=O)OC(C)(C)C)CC1 (stereo not shown) [Example 15, tert-butyl 4-[Ethyl(1-methyl-6-oxo-4-pyridin-4-yl-1,6-dihydropyrimidin-2-yl)amino]azepane-1-carboxylate]	31 nM
Cn1c(N2[C@@H]3CC[C@H]2CC(n2cnc4ccccc42)C3)nc(-c2ccncc2)cc1=O (stereo partly drawn) [Example 16, 2-[(1R,5S)-3-(1H-Benzimidazol-1-yl)-8-azabicyclo[3.2.1]oct-8-yl]-3-methyl-6-pyridin-4-ylpyrimidin-4(3H)-one]	20.5 nM
Cn1c(N[C@H]2CN(C(=O)OC(C)(C)C)C[C@@H]2F)nc(-c2ccncc2)cc1=O [Example 17, tert-butyl (3S,4S)-3-Fluoro-4-[(1-methyl-6-oxo-4-pyridin-4-yl-1,6-dihydropyrimidin-2-yl)amino]pyrrolidine-1-carboxylate]	26.3 nM
Cn1c(NCC2CCCN2C(=O)OC(C)(C)C)nc(-c2ccncc2)cc1=O (stereo not shown) [Example 18, tert-butyl 2-{[(1-Methyl-6-oxo-4-pyridin-4-yl-1,6-dihydropyrimidin-2-yl)amino]methyl} pyrrolidine-1-carboxylate]	108 nM
Cn1c(NC2CCCN(C(=O)OC(C)(C)C)C2)nc(-c2ccncc2)cc1=O (stereo not shown) [Example 19, tert-butyl 3-[(1-Methyl-6-oxo-4-pyridin-4-yl-1,6-dihydropyrimidin-2-yl)amino]piperidine-1-carboxylate]	42 nM
Cn1c(NC2CCCCN(C(=O)OC(C)(C)C)C2)nc(-c2ccncc2)cc1=O (stereo not shown) [Example 20, tert-butyl 3-[(1-Methyl-6-oxo-4-pyridin-4-yl-1,6-dihydropyrimidin-2-yl)amino]azepane-1-carboxylate]	24.1 nM
Cn1c(N[C@@H]2CC[C@@H](NC(=O)OC(C)(C)C)C2)nc(-c2ccncc2)cc1=O [Example 21, tert-butyl {(1R,3R)-3-[(1-Methyl-6-oxo-4-pyridin-4-yl-1,6-dihydropyrimidin-2-yl)amino]cyclopentyl} carbamate]	52.5 nM
Cn1c(N2CCc3ccccc3C2Cc2ccccc2)nc(-c2ccncc2)cc1=O (stereo not shown) [Example 22, 2-(1-Benzyl-3,4-dihydroisoquinolin-2(1H)-yl)-3-methyl-6-pyridin-4-ylpyrimidin-4(3H)-one]	37 nM
CN(c1nc(-c2ccncc2)cc(=O)n1C)[C@H]1CC[C@H]2NCC[C@@]2(C)C1 [Example 23, 3-methyl-2-{Methyl[(3aS,5S,7aR)-3a-methyloctahydro-1H-indol-5-yl]amino}-6-pyridin-4-ylpyrimidin-4(3H)-one]	47 nM
Cn1c(NC2CCN(C(=O)OC(C)(C)C)C2)nc(-c2ccncc2)cc1=O (stereo not shown) [Example 24, tert-butyl 3-[(1-Methyl-6-oxo-4-pyridin-4-yl-1,6-dihydropyrimidin-2-yl)amino]pyrrolidine-1-carboxylate]	43 nM
Cn1c(N2CCN(C(=O)OC(C)(C)C)[C@@H]3CCCC[C@H]32)nc(-c2ccncc2)cc1=O [Example 25, tert-butyl (4aR,8aR)-4-(1-Methyl-6-oxo-4-pyridin-4-yl-1,6-dihydropyrimidin-2-yl)octahydroquinox-aline-1(2H)-carboxylate]	40 nM
Cn1c(N2CC[C@@H]3CN(C(=O)OC(C)(C)C)C[C@@H]32)nc(-c2ccncc2)cc1=O [Example 26, tert-butyl (3aR,6aR)-1-(1-Methyl-6-oxo-4-pyridin-4-yl-1,6-dihydropyrimidin-2-yl)hexahydropyrrolo [3,4-b]pyrrole-5(1H)-carboxylate]	97 nM
Cn1c(NC2(c3cccc(C(C)(C)C)c3)CCOCC2)nc(-c2ccncc2)cc1=O [Example 27, 2-{[4-(3-tert-Butylphenyl)tetra-hydro-2H-pyran-4-yl]amino}-3-methyl-6-pyridin-4-ylpyrimidin-4(3H)-one]	12 nM
COc1cccc2c1CC[C@@H](Nc1nc(-c3ccncc3)cc(=O)n1C)[C@H]2C [Example 28, 2-{[(1S,2R)-5-Methoxy-1-methyl-1,2,3,4-tetrahydronaphthalen-2-yl]amino}-3-methyl-6-pyridin-4-ylpyrimidin-4(3H)-one]	3.9 nM
Cn1c(NCCc2nc(-c3ccccc3)cs2)nc(-c2ccncc2)cc1=O [Example 29, 3-Methyl-2-{[2-(4-phenyl-1,3-thiazol-2-yl)ethyl]amino}-6-pyridin-4-ylpyrimidin-4(3H)-one]	16 nM
